Measurements as given in PubChem BioAssay AID330 (DTP/NCI, 2004).
Several values for one entry are separate records, joined by “and”; a condition that tells them apart may be missing. Equal entries are not always repeated. Inconclusive results and toxic doses are left out.

Tested on: P388 leukemia ip, CD2F1 mice, survival T/C
Experiment: NCI In Vivo Anticancer Drug Screen. Data for tumor model P388 Leukemia (intraperitoneal) in CD2F1 (CDF1) mice
Details: endpoint: median survival time, higher = longer survival
Procedure, shortened: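 Mice carrying the transplanted tumor received test compound or vehicle. Survival was recorded in each group, and the value is the treated-group measurement divided by that of the vehicle-treated control group.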

[1] = dose: 50.0 mg/kg/injection, schedule: Q01DX005 (ip), vehicle: saline with Tween-80
[2] = dose: 50.0 mg/kg/injection, schedule: Q01DX009 (ip), vehicle: saline with Tween-80
[3] = dose: 100.0 mg/kg/injection, schedule: Q01DX009 (ip), vehicle: saline with Tween-80
[4] = dose: 200.0 mg/kg/injection, schedule: Q01DX009 (ip), vehicle: saline with Tween-80
[5] = dose: 60.0 mg/kg/injection, schedule: Q01DX005 (ip), vehicle: saline
[6] = dose: 120.0 mg/kg/injection, schedule: Q01DX005 (ip), vehicle: saline
[7] = dose: 50.0 mg/kg/injection, schedule: Q01DX005 (ip), vehicle: Klucel (hydroxypropylcellulose) (HPC)
[8] = dose: 100.0 mg/kg/injection, schedule: Q01DX005 (ip), vehicle: Klucel (hydroxypropylcellulose) (HPC)
[9] = dose: 200.0 mg/kg/injection, schedule: Q01DX005 (ip), vehicle: Klucel (hydroxypropylcellulose) (HPC)
[10] = dose: 60.0 mg/kg/injection, schedule: Q01DX005 (ip), vehicle: Klucel (hydroxypropylcellulose) (HPC)
[11] = dose: 25.0 mg/kg/injection, schedule: Q01DX009 (ip), vehicle: saline with Tween-80

SMILES: CCN(CC)CCNc1ncnc2c1cnn2C
- T/C (dose: 12.5 mg/kg/injection, schedule: Q01DX005 (ip), vehicle: saline): 106 % of control
- T/C (dose: 25.0 mg/kg/injection, schedule: Q01DX005 (ip), vehicle: saline): 106 % of control
- T/C [1]: 99 % of control
- T/C (dose: 50.0 mg/kg/injection, schedule: Q01DX005 (ip), vehicle: saline): 106 % of control

SMILES: CN(C)c1cc(=O)c2ccc3ccccc3c2o1
- T/C [2]: 96 % of control
- T/C [3]: 96 % of control
- T/C [4]: 93 % of control

SMILES: OC1CC2CCC(C1)N2 (stereo not given)
- T/C [5]: 100 % of control
- T/C [6]: 96 % of control

SMILES: CCOC1NC(=O)C(OCC)NC1=O (stereo not given)
- T/C [7]: 96 % of control
- T/C [8]: 99 % of control
- T/C [9]: 97 % of control

SMILES: C/C=C1\CN2CCC34c5ccccc5N5C(C6C7CC8N(CCC89c8cccc(O)c8N(C(C)=O)C69)C/C7=C\C)OCC(C1CC23)C54 (stereo not given)
- T/C (dose: 11.25 mg/kg/injection, schedule: Q01DX009 (ip), vehicle: saline with Tween-80): 106 % of control
- T/C (dose: 22.5 mg/kg/injection, schedule: Q01DX009 (ip), vehicle: saline with Tween-80): 105 % of control
- T/C (dose: 45.0 mg/kg/injection, schedule: Q01DX009 (ip), vehicle: saline with Tween-80): 106 % of control
- T/C (dose: 90.0 mg/kg/injection, schedule: Q01DX009 (ip), vehicle: saline with Tween-80): 104 % of control

SMILES: O=C(O)c1sc(-c2ccccc2)c2c1-c1ccccc1C2=O
- T/C [10]: 98 % of control
- T/C (dose: 120.0 mg/kg/injection, schedule: Q01DX005 (ip), vehicle: Klucel (hydroxypropylcellulose) (HPC)): 96 % of control
- T/C (dose: 240.0 mg/kg/injection, schedule: Q01DX005 (ip), vehicle: Klucel (hydroxypropylcellulose) (HPC)): 97 % of control

SMILES: CC(C)C1(c2ccccc2)C(=O)c2ccccc2C1=O
- T/C (dose: 100.0 mg/kg/injection, schedule: Q04DX003 (ip), vehicle: saline): 102 % of control
- T/C (dose: 200.0 mg/kg/injection, schedule: Q04DX003 (ip), vehicle: saline): 103 % of control
- T/C (dose: 400.0 mg/kg/injection, schedule: Q04DX003 (ip), vehicle: saline): 105 % of control

SMILES: C=C1C(=O)OC2CC3=CCC(OC3=O)/C(C)=C\CC12 (stereo not given)
- T/C (dose: 21.5 mg/kg/injection, schedule: Q01DX005 (ip), vehicle: Klucel (hydroxypropylcellulose) (HPC)): 118 % of control
- T/C (dose: 43.0 mg/kg/injection, schedule: Q01DX005 (ip), vehicle: Klucel (hydroxypropylcellulose) (HPC)): 116 % of control
- T/C (dose: 86.0 mg/kg/injection, schedule: Q01DX005 (ip), vehicle: Klucel (hydroxypropylcellulose) (HPC)): 108 % of control

SMILES: [Cl][Pd][Cl].[NH-]CCN1CC1
- T/C (dose: 25.0 mg/kg/injection, schedule: Q01DX009 (ip), vehicle: Klucel (hydroxypropylcellulose) (HPC)): 119 % of control
- T/C (dose: 50.0 mg/kg/injection, schedule: Q01DX009 (ip), vehicle: Klucel (hydroxypropylcellulose) (HPC)): 112 % of control
- T/C (dose: 100.0 mg/kg/injection, schedule: Q01DX009 (ip), vehicle: Klucel (hydroxypropylcellulose) (HPC)): 114 % of control

SMILES: COc1cc2c(c(OC)c1OC)-c1ccc(OC)c(=O)cc1C(NC(=O)CO)CC2 (stereo not given)
- T/C (dose: 0.16 mg/kg/injection, schedule: Q01DX009 (ip), vehicle: Klucel (hydroxypropylcellulose) (HPC)): 104 % of control and 111 % of control
- T/C (dose: 0.62 mg/kg/injection, schedule: Q01DX009 (ip), vehicle: Klucel (hydroxypropylcellulose) (HPC)): 153 % of control and 157 % of control

SMILES: O=C1OCc2c1cc1n(c2=O)Cc2cc3ccccc3nc2-1
- T/C (dose: 1.0 mg/kg/injection, schedule: Q01DX009 (ip), vehicle: saline with Tween-80): 99 % of control and 114 % of control and 115 % of control
- T/C (dose: 2.0 mg/kg/injection, schedule: Q01DX009 (ip), vehicle: saline with Tween-80): 105 % of control

SMILES: CCCCN(CC)CC(CC)Nc1cc(OC)cc2cccnc12 (stereo not given)
- T/C [1]: 102 % of control
- T/C (dose: 100.0 mg/kg/injection, schedule: Q01DX005 (ip), vehicle: saline with Tween-80): 95 % of control
- T/C (dose: 200.0 mg/kg/injection, schedule: Q01DX005 (ip), vehicle: saline with Tween-80): 101 % of control

SMILES: O=[N+]([O-])c1cc2ccccc2c(O)c1O
- T/C (dose: 12.5 mg/kg/injection, schedule: Q01DX009 (ip), vehicle: saline with Tween-80): 95 % of control
- T/C [11]: 104 % of control
- T/C [2]: 118 % of control

SMILES: O=C(NC(Cc1ccsc1)C(=O)O)c1ccccc1 (stereo not given)
- T/C (dose: 25.0 mg/kg/injection, schedule: Q01DX009 (ip), vehicle: other): 102 % of control
- T/C (dose: 50.0 mg/kg/injection, schedule: Q01DX009 (ip), vehicle: other): 104 % of control
- T/C (dose: 100.0 mg/kg/injection, schedule: Q01DX009 (ip), vehicle: other): 98 % of control

SMILES: Cc1ccc(C(=Nc2ccccc2)c2ccccc2C)cc1
- T/C (dose: 50.0 mg/kg/injection, schedule: Q04DX002 (ip), vehicle: saline with Tween-80): 91 % of control and 95 % of control
- T/C (dose: 100.0 mg/kg/injection, schedule: Q04DX002 (ip), vehicle: saline with Tween-80): 104 % of control and 86 % of control
- T/C (dose: 200.0 mg/kg/injection, schedule: Q04DX002 (ip), vehicle: saline with Tween-80): 87 % of control and 93 % of control
- T/C (dose: 400.0 mg/kg/injection, schedule: Q04DX002 (ip), vehicle: saline with Tween-80): 86 % of control and 95 % of control

SMILES: C[N+](C)(C)CCOC(=O)CCC(=O)OCC[N+](C)(C)C
- T/C (dose: 312.0 micrograms/kg/injection, schedule: Q01DX009 (ip), vehicle: saline): 104 % of control
- T/C (dose: 625.0 micrograms/kg/injection, schedule: Q01DX009 (ip), vehicle: saline): 90 % of control
- T/C (dose: 1250.0 micrograms/kg/injection, schedule: Q01DX009 (ip), vehicle: saline): 109 % of control

SMILES: Cc1c(N=Nc2ccc(Br)cc2)c(-c2ccccc2)nn1C(=S)S
- T/C [7]: 105 % of control
- T/C [8]: 105 % of control
- T/C [9]: 90 % of control

SMILES: COc1cccc2c1NC(O)c1cccn1C2=O (stereo not given)
- T/C (dose: 0.1 mg/kg/injection, schedule: Q01DX005 (ip), vehicle: water): 93 % of control
- T/C (dose: 0.2 mg/kg/injection, schedule: Q01DX005 (ip), vehicle: water): 93 % of control
- T/C (dose: 0.4 mg/kg/injection, schedule: Q01DX005 (ip), vehicle: water): 96 % of control
- T/C (dose: 0.8 mg/kg/injection, schedule: Q01DX005 (ip), vehicle: water): 93 % of control
- T/C (dose: 1.6 mg/kg/injection, schedule: Q01DX005 (ip), vehicle: water): 98 % of control
- T/C (dose: 5.0 mg/kg/injection, schedule: Q01DX005 (ip), vehicle: distilled water + Tween-80): 90 % of control
- T/C (dose: 10.0 mg/kg/injection, schedule: Q01DX005 (ip), vehicle: distilled water + Tween-80): 98 % of control
- T/C (dose: 20.0 mg/kg/injection, schedule: Q01DX005 (ip), vehicle: distilled water + Tween-80): 100 % of control
- T/C (dose: 40.0 mg/kg/injection, schedule: Q01DX005 (ip), vehicle: distilled water + Tween-80): 100 % of control
- T/C (dose: 80.0 mg/kg/injection, schedule: Q01DX005 (ip), vehicle: distilled water + Tween-80): 93 % of control

SMILES: CC(=O)O[C@H]1C[C@@H]2C(COC(=O)CC(C)C)=CO[C@@H](OC(=O)CC(C)C)[C@@H]2[C@@]12CO2
- T/C (dose: 3.75 mg/kg/injection, schedule: Q01DX005 (ip), vehicle: Klucel (hydroxypropylcellulose) (HPC)): 105 % of control
- T/C (dose: 7.5 mg/kg/injection, schedule: Q01DX005 (ip), vehicle: Klucel (hydroxypropylcellulose) (HPC)): 101 % of control
- T/C (dose: 15.0 mg/kg/injection, schedule: Q01DX005 (ip), vehicle: Klucel (hydroxypropylcellulose) (HPC)): 88 % of control
- T/C (dose: 30.0 mg/kg/injection, schedule: Q01DX005 (ip), vehicle: Klucel (hydroxypropylcellulose) (HPC)): 95 % of control
- T/C [10]: 101 % of control

SMILES: C=C(C(=O)OC)C1C=CC2OC(C)(C)OCC2O1 (stereo not given)
- T/C [5]: 113 % of control
- T/C [6]: 106 % of control
- T/C (dose: 240.0 mg/kg/injection, schedule: Q01DX005 (ip), vehicle: saline): 109 % of control

SMILES: CCOC(=O)N1CCN(CCCCCOc2ccc(CC(C)(C)C)cc2Cl)CC1
- T/C [11]: 110 % of control
- T/C (dose: 25.0 mg/kg/injection, schedule: Q01DX009 (ip), vehicle: saline): 93 % of control
- T/C [2]: 106 % of control
- T/C (dose: 50.0 mg/kg/injection, schedule: Q01DX009 (ip), vehicle: saline): 100 % of control
- T/C [3]: 111 % of control
- T/C (dose: 100.0 mg/kg/injection, schedule: Q01DX009 (ip), vehicle: saline): 113 % of control
- T/C [4]: 117 % of control
- T/C (dose: 200.0 mg/kg/injection, schedule: Q01DX009 (ip), vehicle: saline): 92 % of control

SMILES: O=C(Nc1ccccc1)OCC[N+](CCO)(CCO)CCO
- T/C (dose: 60.0 mg/kg/injection, schedule: Q01DX005 (ip), vehicle: water): 100 % of control
- T/C (dose: 120.0 mg/kg/injection, schedule: Q01DX005 (ip), vehicle: water): 100 % of control
- T/C (dose: 240.0 mg/kg/injection, schedule: Q01DX005 (ip), vehicle: water): 99 % of control
